One data set relates to HIV. Description: microbe, parasite or virus in culture. The format is cell-based. In a few lines:
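MT-4 cells (2.5×10^5 cells/ml) infected with 1000 CCID50 HIV, added at once to compound dilutions, incubated 4 or 5 days at 37° C. Protection from virus-induced cytopathic effect read by MTT; cytotoxicity from MTT viability of mock-infected cells in parallel.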

The next data set concerns mock-infected MT-4 cells. Description: Cytotoxicity based on viability of mock-infected host cells (MTT method). The format is cell-based. To be noted: mock-infected MT-4 cells, MTT method, 4 or 5 days at 37° C. In a few lines: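 Mock-infected MT-4 cells at 2.5×10^5 cells/ml were exposed to various concentrations of test compound, run in parallel with HIV-infected (1000 CCID50) cultures. After 4 or 5 days at 37° C., host-cell viability was read by MTT.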
A general note: Tetrazolium dyes change colour on reduction, which living cells bring about.

Where [1] appears, read: Human immunodeficiency virus 1, MT4, HIV-infected MT-4 cells, MTT method, 4 or 5 days at 37° C., read-out: ED50 (the source's name).
The mark [2] stands for this setting: Human immunodeficiency virus 1, MT4, read-out: ED50.

For orientation: melting point means the temperature, or range, at which the solid turns liquid.

Converted amounts (≈) assume the structure as drawn. Read-outs that look alike come from different tables or passages of the source.

Molecule `CCc1c(C(=O)c2cc(C)cc(C)c2)n(Cc2cc(OC)cc(OC)c2)c(=O)[nH]c1=O` [Example 59, 1-(3,5-Dimethoxybenzyl)-5-ethyl-6-(3,5-dimethylbenzoyl)-2,4-pyrimidinedione] gave a melting point of 208 to 210 °C. Further, the EC50 with HIV (setting [1]) was 0.31 µg/mL (≈ 0.734 µM). Besides, the CD50 in the data set on mock-infected MT-4 cells turned out to be 69.00 µg/mL.

For the molecule `Cc1cc(C)cc(Oc2c(C(C)C)c(=O)[nH]c(=O)n2Cc2ccc3c(c2)C(=O)c2ccccc2C3=O)c1` [Example 106, 1-(Anthraquinon-2-ylmethyl)-5-isopropyl-6-(3,5-dimethylphenoxy)-2,4-pyrimidinedione], the melting point is 246 to 248 °C. For the same molecule, in the data set with HIV (setting [1]), the EC50 came out at 0.49 µg/mL (≈ 0.991 µM). The same molecule came in with a CD50 in the data set on mock-infected MT-4 cells of 9.49 µg/mL.

As for `Cc1cc(C)cc(Oc2c(C(C)C)c(=O)[nH]c(=O)n2Cc2cc(F)ccc2F)c1` [Example 70, 1-(2,5-Difluorobenzyl)-5-isopropyl-6-(3,5-dimethylphenoxy)-2,4-pyrimidinedione], the melting point was 214 to 216 °C. Also, the EC50 with HIV (setting [1]) was found to be 0.014 µg/mL (≈ 0.035 µM). The CD50 in the data set with mock-infected MT-4 cells is above 100.00 µg/mL.

Consider `CCc1c(Oc2cc(C)cc(C)c2)n(CC(C)=O)c(=O)[nH]c1=O` [Example 157, 1-(Acetonyl)-5-ethyl-6-(3,5-dimethylphenoxy)-2,4-pyrimidinedione], for which the melting point was 162 to 165 °C. Also, in the data set on HIV (setting [2]), the EC50 came to 0.0119 µg/mL (≈ 0.0376 µM). In addition, the CD50 in the data set with mock-infected MT-4 cells was 3.6 µg/mL.

The molecule `Cc1cc(C)cc(Oc2c(C(C)C)c(=O)[nH]c(=O)n2Cc2cc(Br)cc(Br)c2)c1` [Example 88, 1-(3,5-Dibromobenzyl)-5-isopropyl-6-(3,5-dimethylphenoxy)-2,4-pyrimidinedione] gave a melting point of 244 to 246 °C. Also, the EC50 in the data set with HIV (setting [2]) is 0.42 µg/mL (≈ 0.804 µM). Moreover, the CD50 in the data set with mock-infected MT-4 cells was above 100.00 µg/mL.

On to `Cc1cc(C)cc(C(=O)c2c(C(C)C)c(=O)[nH]c(=O)n2Cc2ccccc2)c1` [Example 24, 1-Benzyl-5-isopropyl-6-(3,5-dimethylbenzoyl)-2,4-pyrimidinedione], for which the melting point was in the range of 188 to 190 °C. Besides, the EC50 in the data set with HIV (setting [1]) was 0.0009 µg/mL (≈ 0.00239 µM). The same molecule yielded a CD50 in the data set on mock-infected MT-4 cells of 5.20 µg/mL.

`CCc1c(Sc2cc(C)cc(C)c2)n(Cc2nc3ccccc3o2)c(=O)[nH]c1=O` [Example 145, 1-(Benzoxazol-2-ylmethyl)-5-ethyl-6-(3,5-dimethylphenyl)thio-2,4-pyrimidinedione]: the melting point lay within 104 to 106 °C. Further, the EC50 with HIV (setting [2]) is 3.04 µg/mL (≈ 7.46 µM). The molecule also showed a CD50 with mock-infected MT-4 cells above 100.00 µg/mL.

With `CCc1c(Sc2cc(C)cc(C)c2)n(Cc2ccc(OC(F)(F)F)cc2)c(=O)[nH]c1=O` [Example 31, 1-(4-Trifluoromethoxybenzyl)-5-ethyl-6-(3,5-dimethylphenyl)thio-2,4-pyrimidinedione], the melting point is 138 to 140 °C. Also, the EC50 with HIV (setting [1]) was determined as 0.017 µg/mL (≈ 0.0377 µM). In addition, in the data set with mock-infected MT-4 cells, the CD50 came out at 4.86 µg/mL.

Molecule `CCc1c(Oc2cc(C)cc(C)c2)n(Cc2occc2C(=O)OC)c(=O)[nH]c1=O` [Example 153, 1-(3-Methoxycarbonyl-2-furanylmethyl)-5-ethyl-6-(3,5-dimethylphenoxy)-2,4-pyrimidinedione] returned a melting point of 150 to 152 °C. In addition, the EC50 in the data set with HIV (setting [1]) amounted to 0.278 µg/mL (≈ 0.698 µM). The CD50 with mock-infected MT-4 cells is 12.22 µg/mL.

In turn, `CCc1c(C(=O)c2cc(C)cc(C)c2)n(CC2CCC2)c(=O)[nH]c1=O` [Example 11, 1-(Cyclobutyl)methyl-5-ethyl-6-(3,5-dimethylbenzoyl)-2,4-pyrimidinedione] returned a melting point of 200 to 202 °C. Further, the EC50 with HIV (setting [1]) stood at 0.0027 µg/mL (≈ 0.00793 µM). Besides, the CD50 in the data set with mock-infected MT-4 cells is 89.1 µg/mL.

The values above are taken from patent publication US6987114B1, “Antiviral pyrimidinedione derivatives and process for the preparation thereof” (Samjin Pharmaceutical Co., Ltd, priority 1999, dated 2006).
